Key:
[1] = 318.15 K; 101.33 kPa; Liquid
[2] = refractive index (Na D-line) (dimensionless); details: 318.15 K; 101.33 kPa; Liquid; Standard Abbe refractometry
[3] = excess molar enthalpy (molar enthalpy of mixing); xn = mol fraction of the nth substance listed; details: 101.32 kPa, Liquid, Calvet calorimetry
[4] = xn = mol fraction of the nth substance listed; details: 101.32 kPa, Liquid

CC(C)(C)O [2-methylpropan-2-ol]
Details | mass density [kg/m3] | refractive index
[1] | 759.87 | –
[2] | – | 1.3741

CCCC(=O)OC [methyl butanoate] + CC(C)(C)O
Details | excess molar enthalpy [kcal/mol] | excess molar volume [m3/mol]
[3], 299.15 K, x1 = 0.0487 | 0.0783 | –
[3], 299.15 K, x1 = 0.1046 | 0.158 | –
[3], 299.15 K, x1 = 0.1632 | 0.234 | –
[3], 299.15 K, x1 = 0.2233 | 0.299 | –
[3], 299.15 K, x1 = 0.283 | 0.351 | –
[3], 299.15 K, x1 = 0.3383 | 0.389 | –
[3], 299.15 K, x1 = 0.3915 | 0.415 | –
[3], 299.15 K, x1 = 0.4395 | 0.431 | –
[3], 299.15 K, x1 = 0.4853 | 0.439 | –
[3], 299.15 K, x1 = 0.5221 | 0.441 | –
[3], 299.15 K, x1 = 0.5268 | 0.441 | –
[3], 299.15 K, x1 = 0.5545 | 0.439 | –
[3], 299.15 K, x1 = 0.5745 | 0.437 | –
[3], 299.15 K, x1 = 0.636 | 0.417 | –
[3], 299.15 K, x1 = 0.7063 | 0.379 | –
[3], 299.15 K, x1 = 0.778 | 0.323 | –
[3], 299.15 K, x1 = 0.8552 | 0.24 | –
[3], 299.15 K, x1 = 0.9325 | 0.129 | –
[3], 318.15 K, x1 = 0.0458 | 0.0698 | –
[3], 318.15 K, x1 = 0.1 | 0.141 | –
[3], 318.15 K, x1 = 0.1556 | 0.207 | –
[3], 318.15 K, x1 = 0.2136 | 0.274 | –
[3], 318.15 K, x1 = 0.2734 | 0.329 | –
[3], 318.15 K, x1 = 0.3313 | 0.37 | –
[3], 318.15 K, x1 = 0.3854 | 0.401 | –
[3], 318.15 K, x1 = 0.4221 | 0.415 | –
[3], 318.15 K, x1 = 0.4655 | 0.427 | –
[3], 318.15 K, x1 = 0.5127 | 0.431 | –
[3], 318.15 K, x1 = 0.5632 | 0.429 | –
[3], 318.15 K, x1 = 0.6217 | 0.416 | –
[3], 318.15 K, x1 = 0.6845 | 0.388 | –
[3], 318.15 K, x1 = 0.7505 | 0.344 | –
[3], 318.15 K, x1 = 0.8187 | 0.28 | –
[3], 318.15 K, x1 = 0.884 | 0.195 | –
[3], 318.15 K, x1 = 0.9472 | 0.102 | –
[4], 303.15 K, x1 = 0.0628 | – | 1.6e-07
[4], 303.15 K, x1 = 0.0928 | – | 2.36e-07
[4], 303.15 K, x1 = 0.1566 | – | 3.68e-07
[4], 303.15 K, x1 = 0.194 | – | 4.3e-07
[4], 303.15 K, x1 = 0.2507 | – | 5.07e-07
[4], 303.15 K, x1 = 0.3088 | – | 5.69e-07
[4], 303.15 K, x1 = 0.3502 | – | 6.04e-07
[4], 303.15 K, x1 = 0.3916 | – | 6.3e-07
[4], 303.15 K, x1 = 0.453 | – | 6.49e-07
[4], 303.15 K, x1 = 0.5059 | – | 6.51e-07
[4], 303.15 K, x1 = 0.5463 | – | 6.4e-07
[4], 303.15 K, x1 = 0.6022 | – | 6.17e-07
[4], 303.15 K, x1 = 0.6588 | – | 5.71e-07
[4], 303.15 K, x1 = 0.698 | – | 5.37e-07
[4], 303.15 K, x1 = 0.7527 | – | 4.73e-07
[4], 303.15 K, x1 = 0.7928 | – | 4.2e-07
[4], 303.15 K, x1 = 0.851 | – | 3.21e-07
[4], 303.15 K, x1 = 0.9115 | – | 2.06e-07
[4], 303.15 K, x1 = 0.942 | – | 1.4e-07
[4], 318.15 K, x1 = 0.1079 | – | 2.35e-07
[4], 318.15 K, x1 = 0.1326 | – | 2.91e-07
[4], 318.15 K, x1 = 0.1749 | – | 3.68e-07
[4], 318.15 K, x1 = 0.2201 | – | 4.34e-07
[4], 318.15 K, x1 = 0.2751 | – | 5.03e-07
[4], 318.15 K, x1 = 0.3257 | – | 5.54e-07
[4], 318.15 K, x1 = 0.3949 | – | 6.05e-07
[4], 318.15 K, x1 = 0.4521 | – | 6.3e-07
[4], 318.15 K, x1 = 0.4783 | – | 6.36e-07
[4], 318.15 K, x1 = 0.55 | – | 6.31e-07
[4], 318.15 K, x1 = 0.5996 | – | 6.16e-07
[4], 318.15 K, x1 = 0.6675 | – | 5.74e-07
[4], 318.15 K, x1 = 0.7318 | – | 5.24e-07
[4], 318.15 K, x1 = 0.8163 | – | 4.04e-07
[4], 318.15 K, x1 = 0.8728 | – | 3.17e-07

— the NIST ThermoML archive (doi:10.1021/je034290l)
